Patent US20260374818A1, “CATIONIC PEPTIDES WITH BROAD SPECTRUM ACTIVITY” (priority 2023, published 2026)
Converted amounts (≈) assume the structure as drawn. Where a SMILES comes first, the peptide text is derived from it. [ ]: non-standard residue; d: D form.

Assays:
[1] = tested on: MRSA USA300 biofilms; test: Biofilm inhibition by >95% pure peptides (crystal violet), MRSA; type: cell-based, methicillin resistant Staphylococcus aureus; conditions: MRSA USA300 biofilms, >95% pure peptides, 10% TSB + 0.1% glucose
[2] = tested on: Klebsiella pneumoniae; test: MIC (broth microdilution) of peptides, K. pneumoniae; type: cell-based; conditions: mode of three biological replicates
Experimental: (§1) Minimal inhibitory concentration (MIC) against planktonic bacteria: The MIC of the synthetic peptides was determined in Mueller-Hinton broth (MHB) using the broth microdilution method described previously [Wiegand, I., Hilpert, K., & Hancock, R. E. (2008). Agar and broth dilution methods to determine the minimal inhibitory concentration (MIC) of antimicrobial substances. Nature Protocols, 3(2), 163-175]. Briefly, 10 μl of a 10× concentrated peptide solution was placed in the bottom of a well in a 96-well polypropylene round bottom plate (Corning Inc.). A bacterial suspension of ~5×10^5 CFU/ml was prepared from an overnight culture and 90 μl of this was added to each well. […] Bacteria tested included P. aeruginosa PAO1, MRSA USA300 LAC, Staphylococcus haemolyticus, Staphylococcus epidermidis, Klebsiella pneumoniae and Streptococcus salivarius.
(§2) Finally, the AB103-D derivatives that were the least aggregation prone and which produced the lowest toxic effects in vivo were evaluated for their direct antibacterial activity towards several pathogens of clinical relevance using a standard minimum inhibitory concentration (MIC) assay [Wiegand, I., Hilpert, K., & Hancock, R. E. (2008). Agar and broth dilution methods to determine the minimal inhibitory concentration (MIC) of antimicrobial substances. Nature Protocols, 3(2), 163-175]. Specifically, peptides AB110-D, AB111-D, AB114-D and AB115-D were tested against P. aeruginosa PAO1, MRSA USA 300, Staphylococcus haemolyticus, Staphylococcus epidermidis, Klebsiella pneumoniae and Streptococcus salivarius and compared against the antibacterial activity of DJK-5 and AB103-D (Table 7). Overall, the antibacterial potency of all of the AB103-D derivatives was stronger than that seen for DJK-5, particularly in the case of the Gram-negative pathogens P. aeruginosa and K. pneumoniae. […]

[3] = tested on: P. aeruginosa PAO1 biofilms; conditions: for minimum inhibitory concentration of peptide that inhibited at least 90% of biofilm growth (MBIC90): P. aeruginosa PAO1 biofilms, >95% pure peptides, crystal violet, BM2 minimal media; for Biofilm growth inhibition: P. aeruginosa PAO1 (FIG. 20D); for More active than AB103-D against PAO1 biofilms: PAO1, >95% pure peptides
[4] = tested on: Streptococcus salivarius; test: MIC (broth microdilution) of peptides, S. salivarius; type: cell-based; conditions: mode of three biological replicates
Experimental: as §1, §2

[5] = Subdermal murine toxicity model; conditions: for Clinical score: 1 hour after subcutaneous administration, comparator DJK-5; for Average cyst size compared to DJK-5: 16 hours after administration, 4 mg/kg
Experimental: FIGS. 14A-14B show murine subdermal toxicity assessment of AB103-D derived peptides. Clinical scores were recorded for each peptide treated mouse one hour after peptide administration (FIG. 14A). […] The presence of a cyst or lesion was recorded 16 hours after peptide administration and the size of the cyst was measured using calipers (FIG. 14B). Data shown are the mean of two independent replicates at a peptide dose of 4 mg/kg.
Subdermal murine toxicity model: A subdermal toxicity mouse model was used to evaluate whether peptides induced localized toxicity of treated cutaneous tissue. Mice were anesthetized with 2.5-3% isoflurane and their fur was removed by shaving followed by application of a chemical depilatory. […] Mice were visually assessed and received clinical scores for a battery of signs or symptoms (activity/behaviour change, appearance/grooming, hydration, pain, cyst formation), for which a score of zero was given to animals that appeared normal. Animals were weighed and clinical scores were totalled. Following an overnight (16 h) incubation, mice were scored and weighed then euthanized with CO2 followed by cervical dislocation. Mice were imaged and cysts (swollen, inflamed tissue) were measured using a caliper. Animal experiments were performed in accordance with the Canadian Council on Animal Care (CCAC) guidelines and were approved by the University of British Columbia Animal Care Committee. Female CD-1 mice were purchased from Charles River Laboratories, Inc. (Wilmington, MA). All mice were 8 weeks of age and weighed 25±5 g at the time of the experiment. Animals were group housed in cohorts of three to four littermates. Standard animal husbandry practices were employed.

[6] = tested on: Staphylococcus epidermidis; test: MIC (broth microdilution) of peptides, S. epidermidis; type: cell-based; conditions: mode of three biological replicates
Experimental: as §1, §2

[7] = tested on: P. aeruginosa PAO1; test: MIC (broth microdilution) of peptides, P. aeruginosa; type: cell-based, Pseudomonas aeruginosa; conditions: mode of three biological replicates
Experimental: as §1, §2

[8] = tested on: Staphylococcus haemolyticus; test: MIC (broth microdilution) of peptides, S. haemolyticus; type: cell-based; conditions: mode of three biological replicates
Experimental: as §1, §2

[9] = tested on: MRSA biofilms (USA300 LAC); conditions: MRSA biofilms, SPOT peptides
[10] = tested on: MRSA USA300 planktonic cells; test: Planktonic growth inhibition by pure AB103-D derivatives, MRSA; type: cell-based, methicillin resistant Staphylococcus aureus
Experimental: (§3) The effect of peptide on bacterial and biofilm growth was assessed using the biofilm inhibition assay [Haney, E. F., Trimble, M. J., & Hancock, R. E. W. (2021) FIGS. 20A-20D. Microtiter plate assays to assess antibiofilm activity against bacteria. Nature Protocols, 16(5), 2615-2632]. The effect of peptide on planktonic growth and biofilm growth of MRSA USA300 (FIG. 20A, FIG. 20C) and P. aeruginosa PAO1 (FIGS. 20B, 20D) was assessed and compared to the activity seen for AB103-D (gray stars) and DJK5 (gray open circles). Data shown are the average of three biological replicates. Error bars have been omitted for clarity. […]. The results indicated enhanced antibiofilm and antibacterial activity of AB103-D derivatives compared to DJK5.

[11] = tested on: MRSA USA 300; test: MIC (broth microdilution) of peptides, MRSA; type: cell-based, methicillin resistant Staphylococcus aureus; conditions: MRSA USA300; mode of three biological replicates
Experimental: as §1, §2

[12] = tested on: peripheral blood mononuclear cells (PBMCs); test: Cytotoxicity (LDH release), PBMCs
[13] = tested on: P. aeruginosa PAO1 planktonic cells; test: Planktonic growth inhibition by pure AB103-D derivatives, P. aeruginosa; type: cell-based, Pseudomonas aeruginosa
Experimental: as §3

[14] = Peptide aggregation in RPMI + 10% FBS with PBMCs (microscopy); type: physicochemical; conditions: overnight
Experimental: Peptide Aggregation: Peptide aggregation was assessed qualitatively by examining samples of peptides mixed with PBMCs following overnight incubation at 37 °C and 5% CO2. All samples were prepared in RPMI media containing 10% FBS the same manner as the cytotoxicity assays described above. Visualization of aggregates was done using a Nikon Eclipse TS100 Inverted Microscope at 10× magnification.
In aggregation studies, peptides were added to PBMCs in RPMI media containing 10% FBS and incubated overnight at 37 °C in 5% CO2.
The peptides were also evaluated for their tendency to aggregate when added to RPMI tissue culture media containing 10% fetal bovine serum in the presence of PBMCs. Peptides were added to PBMCs in RPMI media containing 10% FBS and incubated overnight at 37 °C in 5% CO2. […] Compared to a highly aggregation prone peptide, 1018 [Haney, E. F., et al. (2017). Aggregation and its influence on the immunomodulatory activity of synthetic innate defense regulator peptides.
As with the DJK-5 derivatives above, the AB103-D derivatives were evaluated for their tendency to aggregate when added to RPMI tissue culture media containing 10% fetal bovine serum in the presence of PBMCs. Peptides were added to PBMCs in RPMI media containing 10% FBS and incubated overnight at 37 °C in 5% CO2.

[15] = tested on: red blood cells; test: Hemolysis; type: cell-based, human; conditions: 4 hours
Experimental: Hemolysis: Peptide induced hemolysis was evaluated according to methods described previously [Hilchie, A. L., et al. (2016). Mastoparan is a membranolytic anti-cancer peptide that works synergistically with gemcitabine in a mouse model of mammary carcinoma. Biochimica Et Biophysica Acta, 1858(12), 3195-3204]. Briefly, red blood cells were obtained, with human ethics approval, from the blood of healthy volunteers collected in a sodium heparin tube and then rinsed three times in PBS, centrifuging between washes, to obtain the hematocrit (100% RBC). A 2.5% RBCs suspension was exposed to peptide at varying concentrations and incubated at 37 C in a 5% CO2 humidified atmosphere for 4 hours. Supernatants were collected following centrifugation (1100 rpm) and transferred to a flat bottom microtitre plate. The absorbance (490 nm) of each supernatant was measured on a BioTek Epoch Microplate Spectrophotometer. Percent hemolysis was calculated by comparing the absorbance arising from peptide treated cells to RBCs treated with […] (0% hemolysis) or lysed with 1% Triton X-100 (100% hemolysis).

[16] = tested on: P. aeruginosa PAO1 biofilms; test: Biofilm inhibition by SPOT-synthesized AB103-D variants (crystal violet), P. aeruginosa; type: cell-based, Pseudomonas aeruginosa; conditions: P. aeruginosa PAO1, SPOT peptides
[17] = 200 μg/ml or highest concentration

CC[C@@H](C)[C@@H](NC(=O)[C@@H](C)NC(=O)[C@@H](CCCNC(=N)N)NC(=O)[C@@H](Cc1c[nH]c2ccccc12)NC(=O)[C@@H](CCCCN)NC(=O)[C@H](NC(=O)[C@@H](CCCNC(=N)N)NC(=O)[C@H](NC(=O)[C@H](NC(=O)[C@@H](CCCNC(=N)N)NC(=O)[C@H](NC(=O)[C@H](N)CCCNC(=N)N)C(C)C)C(C)C)[C@H](C)CC)C(C)C)C(N)=O [AB114-D, rvrvirvkwrai] (H-[dR][dV][dR][dV][dI][dR][dV][dK][dW][dR][dA][dI]-NH2)
minimum inhibitory concentration of peptide that inhibited at least 90% of biofilm growth (MBIC90) [1]: 0.5 µM | MIC [2]: 0.8 µg/mL (≈ 0.516 µM) | minimum inhibitory concentration of peptide that inhibited at least 90% of biofilm growth (MBIC90) [3]: 8 µM | MIC [4]: 0.8 µg/mL (≈ 0.516 µM) | Clinical score [5]: < 2 | Average cyst size compared to DJK-5 [5]: smaller than those induced by DJK-5 | MIC [6]: 0.4 µg/mL (≈ 0.258 µM) | MIC [7]: 2 µg/mL (≈ 1.29 µM) | MIC [8]: 0.8 µg/mL (≈ 0.516 µM) | Better activity vs. MRSA cf. AB103-D [9]: ~2 fold | Planktonic growth inhibition [10]: among the most active against planktonic cells | MIC [11]: 0.8 µg/mL (≈ 0.516 µM)

CC[C@@H](C)[C@@H](NC(=O)[C@@H](C)NC(=O)[C@@H](CCCNC(=N)N)NC(=O)[C@@H](Cc1c[nH]c2ccccc12)NC(=O)[C@@H](CCC(N)=O)NC(=O)[C@H](NC(=O)[C@@H](CCCNC(=N)N)NC(=O)[C@H](NC(=O)[C@H](NC(=O)[C@@H](Cc1c[nH]c2ccccc12)NC(=O)[C@H](NC(=O)[C@H](N)CCCNC(=N)N)C(C)C)C(C)C)[C@H](C)CC)C(C)C)C(N)=O [AB109-D, rvwvirvqwrai] (H-[dR][dV][dW][dV][dI][dR][dV][dQ][dW][dR][dA][dI]-NH2)
minimum inhibitory concentration of peptide that inhibited at least 90% of biofilm growth (MBIC90) [1]: 1 µM | Cytotoxicity (LDH) [12]: most toxic towards PBMCs at the highest peptide concentration evaluated of 200 μg/ml | Biofilm growth inhibition [3]: among the most active | minimum inhibitory concentration of peptide that inhibited at least 90% of biofilm growth (MBIC90) [3]: 2 µM | More active than AB103-D against PAO1 biofilms [3]: up to 4 fold | Planktonic growth inhibition [13]: among the most active | Peptide aggregation ([14]; 50 μg/ml): peptide aggregation was again observed | Peptide aggregation [14, 17]: strongly aggregated | Hemolysis [15]: substantial hemolysis at concentrations higher than 25 μg/ml | Activity against PAO1 biofilms compared to AB103-D [16]: activity superior to that of AB103-D

CC[C@@H](C)[C@@H](NC(=O)[C@@H](C)NC(=O)[C@@H](CCCNC(=N)N)NC(=O)[C@@H](Cc1c[nH]c2ccccc12)NC(=O)[C@@H](CCC(N)=O)NC(=O)[C@H](NC(=O)[C@@H](CCCNC(=N)N)NC(=O)[C@@H](Cc1c[nH]c2ccccc12)NC(=O)[C@H](NC(=O)[C@@H](CCCNC(=N)N)NC(=O)[C@H](NC(=O)[C@H](N)CCCNC(=N)N)C(C)C)C(C)C)C(C)C)C(N)=O [AB111-D, rvrvwrvqwrai] (H-[dR][dV][dR][dV][dW][dR][dV][dQ][dW][dR][dA][dI]-NH2)
minimum inhibitory concentration of peptide that inhibited at least 90% of biofilm growth (MBIC90) [1]: 0.5 µM | MIC [2]: 0.8 µg/mL (≈ 0.493 µM) | minimum inhibitory concentration of peptide that inhibited at least 90% of biofilm growth (MBIC90) [3]: 4 µM | MIC [4]: 0.8 µg/mL (≈ 0.493 µM) | Clinical score [5]: < 2 | Average cyst size compared to DJK-5 [5]: smaller than those induced by DJK-5 | MIC [6]: 0.8 µg/mL (≈ 0.493 µM) | MIC [7]: 2 µg/mL (≈ 1.23 µM) | MIC [8]: 0.8 µg/mL (≈ 0.493 µM) | Activity against PAO1 biofilms compared to AB103-D [16]: activity superior to that of AB103-D | Planktonic growth inhibition [10]: among the most active against planktonic cells | MIC [11]: 0.8 µg/mL (≈ 0.493 µM)

CC[C@@H](C)[C@@H](NC(=O)[C@H](NC(=O)[C@@H](CCCNC(=N)N)NC(=O)[C@@H](Cc1c[nH]c2ccccc12)NC(=O)[C@@H](CCC(N)=O)NC(=O)[C@H](NC(=O)[C@@H](CCCNC(=N)N)NC(=O)[C@H](NC(=O)[C@H](NC(=O)[C@@H](CCCNC(=N)N)NC(=O)[C@H](NC(=O)[C@H](N)CCCNC(=N)N)C(C)C)C(C)C)[C@H](C)CC)C(C)C)[C@H](C)CC)C(N)=O [AB112-D, rvrvirvqwrii] (H-[dR][dV][dR][dV][dI][dR][dV][dQ][dW][dR][dI][dI]-NH2)
minimum inhibitory concentration of peptide that inhibited at least 90% of biofilm growth (MBIC90) [1]: 1 µM | Biofilm growth inhibition [3]: among the most active | minimum inhibitory concentration of peptide that inhibited at least 90% of biofilm growth (MBIC90) [3]: 2 µM | More active than AB103-D against PAO1 biofilms [3]: up to 4 fold | Planktonic growth inhibition [13]: among the most active | Peptide aggregation ([14]; 50 μg/ml): peptide aggregation was again observed | Peptide aggregation [14, 17]: strongly aggregated | Activity against PAO1 biofilms compared to AB103-D [16]: activity superior to that of AB103-D
